Reference: PubChem BioAssay (NCI)
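Five concentrations, 48 hours, 96-well plates. TGI: total growth inhibition.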

Legend:
Assay in all cases: NCI-60 cell line screen, 48 h
[1] = system: 786-0 renal
[2] = system: A498 renal
[3] = system: A549 NSCLC
[4] = system: ACHN renal
[5] = system: CAKI-1 renal
[6] = system: CCRF-CEM leukemia
[7] = system: COLO 205 colon
[8] = system: DLD-1 colon
[9] = system: DMS 114 small cell lung
[10] = system: DMS 273 small cell lung
[11] = system: EKVX NSCLC
[12] = system: HCC-2998 colon
[13] = system: HCT-116 colon
[14] = system: HCT-15 colon
[15] = system: HOP-18 NSCLC
[16] = system: HOP-62 NSCLC
[17] = system: HOP-92 NSCLC
[18] = system: HT29 colon
[19] = system: IGROV1 ovarian
[20] = system: K-562 leukemia
[21] = system: KM12 colon
[22] = system: KM20L2 colon
[23] = system: LOX IMVI melanoma
[24] = system: LXFL 529 NSCLC
[25] = system: M14 melanoma
[26] = system: M19-MEL melanoma
[27] = system: MALME-3M melanoma
[28] = system: MOLT-4 leukemia
[29] = system: NCI-H226 lung
[30] = system: NCI-H23 lung
[31] = system: NCI-H460 lung
[32] = system: NCI-H522 lung
[33] = system: OVCAR-3 ovarian
[34] = system: OVCAR-4 ovarian
[35] = system: OVCAR-5 ovarian
[36] = system: RPMI-8226 leukemia
[37] = system: RXF 393 renal
[38] = system: RXF-631 renal
[39] = system: SF-268 CNS
[40] = system: SF-295 CNS
[41] = system: SF-539 CNS
[42] = system: SK-MEL-2 melanoma
[43] = system: SK-MEL-28 melanoma
[44] = system: SK-MEL-5 melanoma
[45] = system: SK-OV-3 ovarian
[46] = system: SN12C renal
[47] = system: SNB-19 CNS
[48] = system: SNB-75 CNS
[49] = system: SNB-78 CNS
[50] = system: SR leukemia
[51] = system: SW-620 colon
[52] = system: U251 CNS
[53] = system: UACC-257 melanoma
[54] = system: UO-31 renal
[55] = system: HL-60(TB) leukemia
[56] = system: OVCAR-8 ovarian
[57] = system: TK-10 renal
[58] = system: UACC-62 melanoma
[59] = system: XF 498 CNS

Cc1ccc(N2C(=O)C(Cl)=C(Cl)C2=O)cc1
TGI [1]: 31 µM | TGI [2]: > 100 µM | TGI [3]: > 100 µM | TGI [4]: 34.1 µM | TGI [5]: 31.4 µM | TGI [6]: 23.4 µM | TGI [7]: 30.7 µM | TGI [8]: 40.7 µM | TGI [9]: 36.5 µM | TGI [10]: > 100 µM | TGI [11]: 39.2 µM | TGI [12]: > 100 µM | TGI [13]: 32.9 µM | TGI [14]: 33.3 µM | TGI [15]: 36.3 µM | TGI [16]: > 100 µM | TGI [17]: 32.4 µM | TGI [18]: 33.3 µM | TGI [19]: 43.4 µM | TGI [20]: 87.4 µM | TGI [21]: 45.2 µM | TGI [22]: 53.6 µM | TGI [23]: 55.5 µM | TGI [24]: 38.5 µM | TGI [25]: 36.7 µM | TGI [26]: 41.9 µM | TGI [27]: 33.7 µM | TGI [28]: 46.5 µM | TGI [29]: > 100 µM | TGI [30]: 41.3 µM | TGI [31]: > 100 µM | TGI [32]: 28.6 µM | TGI [33]: 30.5 µM | TGI [34]: 34.4 µM | TGI [35]: 35.9 µM | TGI [36]: 52.8 µM | TGI [37]: 25.4 µM | TGI [38]: 42.2 µM | TGI [39]: 37.8 µM | TGI [40]: > 100 µM | TGI [41]: 64.2 µM | TGI [42]: > 100 µM | TGI [43]: 31.5 µM | TGI [44]: > 100 µM | TGI [45]: > 100 µM | TGI [46]: 33.7 µM | TGI [47]: > 100 µM | TGI [48]: 48.5 µM | TGI [49]: 54.9 µM | TGI [50]: 54.2 µM | TGI [51]: 34.8 µM | TGI [52]: > 100 µM | TGI [53]: 63.9 µM | TGI [54]: > 100 µM

CC1=Nc2ccccc2C12C(c1ccccc1)C(c1ccccc1)C(=O)N1c3ccccc3CC12 (centres undefined)
TGI [1]: > 100 µM | TGI [2]: > 100 µM | TGI [3]: > 100 µM | TGI [4]: > 100 µM | TGI [5]: > 100 µM | TGI [7]: > 100 µM | TGI [8]: > 100 µM | TGI [9]: > 100 µM | TGI [10]: > 100 µM | TGI [11]: > 100 µM | TGI [12]: > 100 µM | TGI [13]: > 100 µM | TGI [14]: > 100 µM | TGI [55]: > 100 µM | TGI [16]: > 100 µM | TGI [17]: > 100 µM | TGI [18]: > 100 µM | TGI [19]: > 100 µM | TGI [20]: > 100 µM | TGI [21]: > 100 µM | TGI [22]: > 100 µM | TGI [23]: > 100 µM | TGI [24]: > 100 µM | TGI [25]: > 100 µM | TGI [27]: > 100 µM | TGI [28]: > 100 µM | TGI [29]: > 100 µM | TGI [30]: > 100 µM | TGI [31]: > 100 µM | TGI [32]: > 100 µM | TGI [33]: > 100 µM | TGI [34]: > 100 µM | TGI [35]: > 100 µM | TGI [56]: > 100 µM | TGI [36]: > 100 µM | TGI [37]: > 100 µM | TGI [38]: > 100 µM | TGI [40]: > 100 µM | TGI [41]: > 100 µM | TGI [42]: > 100 µM | TGI [43]: > 100 µM | TGI [44]: > 100 µM | TGI [45]: > 100 µM | TGI [46]: > 100 µM | TGI [47]: > 100 µM | TGI [48]: > 100 µM | TGI [49]: > 100 µM | TGI [50]: > 100 µM | TGI [51]: > 100 µM | TGI [57]: > 100 µM | TGI [52]: > 100 µM | TGI [53]: > 100 µM | TGI [58]: > 100 µM | TGI [54]: > 100 µM | TGI [59]: 87.2 µM
